Measured values as given in PubChem BioAssay AID330 (DTP/NCI, 2004).
Where “and” joins values, the source holds several entries; their conditions need not be identical. Identical values can stand only once. Toxic doses and inconclusive results are not listed. How the source made its calls: active means survival T/C of 150% or more; inactive means T/C below 125% in these data.

Test system: P388 leukemia ip, CD2F1 mice, survival T/C
Experiment: NCI In Vivo Anticancer Drug Screen. Data for tumor model P388 Leukemia (intraperitoneal) in CD2F1 (CDF1) mice
Details: endpoint: median survival time, higher = longer survival
Summary of the method: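 Mice carrying the transplanted tumor received test compound or vehicle. Survival was recorded in each group, and the value is the treated-group measurement divided by that of the vehicle-treated control group.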

[1] = dose: 100.0 mg/kg/injection, schedule: Q01DX009 (ip), vehicle: saline with Tween-80
[2] = dose: 200.0 mg/kg/injection, schedule: Q01DX009 (ip), vehicle: saline with Tween-80
[3] = dose: 50.0 mg/kg/injection, schedule: Q01DX009 (ip), vehicle: saline with Tween-80
[4] = dose: 60.0 mg/kg/injection, schedule: Q01DX005 (ip), vehicle: saline with Tween-80
[5] = dose: 120.0 mg/kg/injection, schedule: Q01DX005 (ip), vehicle: saline with Tween-80
[6] = dose: 240.0 mg/kg/injection, schedule: Q01DX005 (ip), vehicle: saline with Tween-80
[7] = dose: 25.0 mg/kg/injection, schedule: Q01DX005 (ip), vehicle: saline with Tween-80
[8] = dose: 50.0 mg/kg/injection, schedule: Q01DX005 (ip), vehicle: saline with Tween-80
[9] = dose: 100.0 mg/kg/injection, schedule: Q01DX005 (ip), vehicle: saline with Tween-80
[10] = dose: 100.0 mg/kg/injection, schedule: Q04DX002 (ip), vehicle: saline with Tween-80
[11] = dose: 200.0 mg/kg/injection, schedule: Q04DX002 (ip), vehicle: saline with Tween-80
[12] = dose: 400.0 mg/kg/injection, schedule: Q04DX002 (ip), vehicle: saline with Tween-80
[13] = dose: 6.25 mg/kg/injection, schedule: Q01DX005 (ip), vehicle: saline with Tween-80
[14] = dose: 12.5 mg/kg/injection, schedule: Q01DX005 (ip), vehicle: saline with Tween-80
[15] = dose: 50.0 mg/kg/injection, schedule: Q01DX009 (ip), vehicle: saline
[16] = dose: 100.0 mg/kg/injection, schedule: Q01DX009 (ip), vehicle: saline
[17] = dose: 200.0 mg/kg/injection, schedule: Q01DX005 (ip), vehicle: saline with Tween-80
[18] = dose: 6.25 mg/kg/injection, schedule: Q01DX009 (ip), vehicle: saline

Measured: T/C

COc1cccc2c1C(=O)c1c(O)c3c(c(O)c1C2=O)CC(O)(C(C)=O)CC3OC1CC(NC2CCCCC2)C(O)C(C)O1 (stereo not given)
inactive: dose: 6.25 mg/kg/injection, schedule: Q04DX003 (ip), vehicle: distilled water + Tween-80 100 % of control | dose: 12.5 mg/kg/injection, schedule: Q04DX003 (ip), vehicle: distilled water + Tween-80 104 % of control | dose: 25.0 mg/kg/injection, schedule: Q04DX003 (ip), vehicle: distilled water + Tween-80 102 % of control | dose: 50.0 mg/kg/injection, schedule: Q04DX003 (ip), vehicle: distilled water + Tween-80 102 % of control | dose: 100.0 mg/kg/injection, schedule: Q04DX003 (ip), vehicle: distilled water + Tween-80 104 % of control | dose: 200.0 mg/kg/injection, schedule: Q04DX003 (ip), vehicle: distilled water + Tween-80 108 % of control

COc1ccc(/C=C/c2ccc3ccccc3n2)c(OC)c1
inactive: [1] 100 % of control | [2] 100 % of control | dose: 400.0 mg/kg/injection, schedule: Q01DX009 (ip), vehicle: saline with Tween-80 100 % of control

CCN(CC)c1ccc2cc(-c3nc4ccccc4[nH]3)c(=O)oc2c1
inactive: dose: 12.5 mg/kg/injection, schedule: Q01DX009 (ip), vehicle: saline with Tween-80 96 % of control | dose: 25.0 mg/kg/injection, schedule: Q01DX009 (ip), vehicle: saline with Tween-80 95 % of control | [3] 88 % of control and 98 % of control | [1] 95 % of control

CCOC(=O)Cc1csc2nc(-c3ccccc3)cn12
inactive: [4] 115 % of control | [5] 104 % of control | [6] 106 % of control

NC(N)=N/N=C/c1nccc2ccccc12
inactive: [7] 99 % of control and 103 % of control | [8] 98 % of control and 99 % of control and 102 % of control | [9] 105 % of control and 120 % of control

C/C(=N\N=C(/[Se])N1CCC1)c1ccccn1
inactive: dose: 12.5 mg/kg/injection, schedule: Q04DX003 (ip), vehicle: Klucel (hydroxypropylcellulose) (HPC) 106 % of control | dose: 25.0 mg/kg/injection, schedule: Q04DX003 (ip), vehicle: Klucel (hydroxypropylcellulose) (HPC) 104 % of control

Cn1c(=O)c2c(-c3ccccc3)cc(-c3ccccc3)nc2n(C)c1=O
inactive: [10] 97 % of control | [11] 100 % of control | [12] 101 % of control

C(=N[C@H]1CCCC[C@H]1N=Cc1ccc[nH]1)c1ccc[nH]1
inactive: [13] 99 % of control | [14] 101 % of control | [7] 100 % of control | [9] 86 % of control

O=S(=O)(Nc1cccc(C(F)(F)F)c1)c1ccc(F)cc1
inactive: [4] 94 % of control | [5] 100 % of control | [6] 93 % of control

CC(C)=NOc1ccc([N+](=O)[O-])cc1[N+](=O)[O-]
inactive: [3] 96 % of control | [1] 108 % of control

O=[N+]([O-])c1ccc(-c2cn3nc(-c4ccccc4)c(-c4ccccc4)nc3n2)cc1
inactive: dose: 12.5 mg/kg/injection, schedule: Q01DX005 (ip), vehicle: Klucel (hydroxypropylcellulose) (HPC) 110 % of control | dose: 25.0 mg/kg/injection, schedule: Q01DX005 (ip), vehicle: Klucel (hydroxypropylcellulose) (HPC) 98 % of control | dose: 50.0 mg/kg/injection, schedule: Q01DX005 (ip), vehicle: Klucel (hydroxypropylcellulose) (HPC) 108 % of control and 93 % of control

O=C(O)CC(O)CCCCCO (stereo not given)
inactive: [3] 110 % of control | [1] 110 % of control | dose: 100.0 mg/kg/injection, schedule: Q04DX003 (ip), vehicle: saline 106 % of control | [2] 100 % of control | dose: 200.0 mg/kg/injection, schedule: Q04DX003 (ip), vehicle: saline 113 % of control | dose: 400.0 mg/kg/injection, schedule: Q04DX003 (ip), vehicle: saline 100 % of control

O=Nc1ccc2ccccc2c1O
inactive: dose: 12.5 mg/kg/injection, schedule: Q01DX001 (ip), vehicle: Klucel (hydroxypropylcellulose) (HPC) 103 % of control | dose: 25.0 mg/kg/injection, schedule: Q01DX001 (ip), vehicle: Klucel (hydroxypropylcellulose) (HPC) 108 % of control | dose: 50.0 mg/kg/injection, schedule: Q01DX001 (ip), vehicle: Klucel (hydroxypropylcellulose) (HPC) 111 % of control

NC(=O)CN1CCN(c2ccnc3cc(Cl)ccc23)CC1
inactive: dose: 25.0 mg/kg/injection, schedule: Q04DX002 (ip), vehicle: saline with Tween-80 101 % of control | dose: 50.0 mg/kg/injection, schedule: Q04DX002 (ip), vehicle: saline with Tween-80 99 % of control | [10] 99 % of control and 103 % of control

CS(=O)(=O)N1C=Cc2ccccc2C=C1
inactive: [10] 99 % of control | [11] 90 % of control | [12] 99 % of control

CC(C)(C)/C(=N\Nc1ccc([N+](=O)[O-])cc1[N+](=O)[O-])c1ccccc1
inactive: dose: 3.13 mg/kg/injection, schedule: Q01DX001 (ip), vehicle: saline with Tween-80 91 % of control | dose: 6.25 mg/kg/injection, schedule: Q01DX001 (ip), vehicle: saline with Tween-80 116 % of control | dose: 12.5 mg/kg/injection, schedule: Q01DX001 (ip), vehicle: saline with Tween-80 95 % of control

Fc1ccc(NC(=S)SCc2ccccc2)cc1F
inactive: [15] 100 % of control | [16] 108 % of control | dose: 200.0 mg/kg/injection, schedule: Q01DX009 (ip), vehicle: saline 107 % of control

CCOC(=O)c1c(OC)c(-c2ccccc2)c(=O)n2c3ccccc3n(C)c12
inactive: [4] 95 % of control | [5] 88 % of control

CC1(C)COC(=O)C(C(=O)O)=C1C(=O)O
inactive: [3] 90 % of control | [1] 87 % of control | [2] 90 % of control

CS/C(=C/c1ccc2ccccc2[n+]1C)N1CCOCC1
inactive: [13] 105 % of control and 107 % of control and 108 % of control | [14] 103 % of control and 105 % of control and 119 % of control | [7] 110 % of control (2×) and 121 % of control

CCC1(c2ccccc2)C(=O)N(CCCl)C(=O)N(CCCl)C1=O
inactive: dose: 50.0 mg/kg/injection, schedule: Q01DX009 (ip), vehicle: Klucel (hydroxypropylcellulose) (HPC) 92 % of control | dose: 100.0 mg/kg/injection, schedule: Q01DX009 (ip), vehicle: Klucel (hydroxypropylcellulose) (HPC) 92 % of control | dose: 200.0 mg/kg/injection, schedule: Q01DX009 (ip), vehicle: Klucel (hydroxypropylcellulose) (HPC) 92 % of control

CCCCc1c(O)c(N=NC(N)=S)c2ccccc2c1O
inactive: [8] 95 % of control | [9] 94 % of control | [17] 91 % of control

C/C(=N\NC(=S)NNC(=S)N1CCCc2ccccc21)c1ccccn1
inactive: dose: 100.0 mg/kg/injection, schedule: Q04DX002 (ip), vehicle: Klucel (hydroxypropylcellulose) (HPC) 113 % of control | dose: 200.0 mg/kg/injection, schedule: Q04DX002 (ip), vehicle: Klucel (hydroxypropylcellulose) (HPC) 115 % of control

COC1=CC(=O)C=C(CO)C1=O
inactive: dose: 1.56 mg/kg/injection, schedule: Q01DX009 (ip), vehicle: saline 104 % of control | dose: 3.12 mg/kg/injection, schedule: Q01DX009 (ip), vehicle: saline 107 % of control | [18] 111 % of control and 94 % of control

Cc1cccc(C(=O)CC[N+](C)(C)C)c1
inactive: dose: 3.13 mg/kg/injection, schedule: Q01DX009 (ip), vehicle: saline 111 % of control | [18] 109 % of control | dose: 12.5 mg/kg/injection, schedule: Q01DX009 (ip), vehicle: saline 94 % of control

O=C(Nc1ccc(S(=O)(=O)O)cc1)c1ccc([N+](=O)[O-])cc1
inactive: [16] 100 % of control | dose: 400.0 mg/kg/injection, schedule: Q01DX009 (ip), vehicle: saline 109 % of control

CC(=O)C1=C(O)C(=O)N(c2ccccc2)C1=O
inactive: [8] 97 % of control | [9] 102 % of control | [17] 100 % of control

O=C1OC(=O)C2C3C=CC(C3)C12 (stereo not given)
inactive: dose: 12.5 mg/kg/injection, schedule: Q01DX009 (ip), vehicle: saline sonified 100 % of control | dose: 25.0 mg/kg/injection, schedule: Q01DX009 (ip), vehicle: saline sonified 100 % of control | dose: 50.0 mg/kg/injection, schedule: Q01DX009 (ip), vehicle: saline sonified 100 % of control

COc1ccc(/C=C/c2ccnnc2)c(OC)c1OC
inactive: dose: 25.0 mg/kg/injection, schedule: Q01DX009 (ip), vehicle: saline 102 % of control | [15] 102 % of control | [16] 105 % of control
